# “And” between values parts separate entries of the source, which are not always exact repeats. Equal values may be shown once.
# Tests used:
# [1] = test system: antibodies in the antisera; type: binding, Balb/c mice
# [2] = test system: antibodies in the antisera; type: binding, Balb/c mice; remark: listed apart in the source
Compound,Absorbance [1],IC50 value of the antibody for the aflatoxin biosynthetic precursor ST [2] [ng/mL]
aflatoxin G1,1.07 and 1.05 and 1.01 and 0.98 and 1.04 and 1.09 and 1.11,
aflatoxin G2,1.03 and 1.04 and 1.05 and 1.01 and 1.09 and 1.02 and 1.10,
"COc1cc2c(c3oc4cccc(O)c4c(=O)c13)[C@@H]1C=CO[C@@H]1O2 [aflatoxin biosynthetic precursor ST, Sterigmatocystin]",,0.41
aflatoxin B2,1.08 and 1.06 and 0.99 and 1.07 and 1.01 and 1.02 and 1.04,

# Reference: patent US9718836B2 (priority 2014, dated 2017)
